Measurements taken from ChEMBL document CHEMBL3885861, “Open TG-GATES”.

Species: Rattus norvegicus
Assay: Open TG-GATES - Regimen: Daily Repeat
Format: toxicity, organism-based, Sprague-Dawley
Design: regimen Daily Repeat, gender Male, age 6 weeks
Settings: in vivo, po, 100 mg/kg, route gavage, dose level Low; for APTT / Bas / Eos / Fbg / Hb / Ht / Lym / MCH / MCHC / MCV / Mono / Neu / PT / Plat / RBC / Ret / WBC: tissue Blood; for KIDNEY_L / KIDNEY_R / KIDNEY_TOTAL: tissue Kidney; for LIVER: tissue Liver; for A/G / ALP / ALT / AST / BUN / CRE / Ca / Cl / DBIL / GLC / IP / K / LDH / Na / PL / RALB / TBIL / TC / TG / TP / gamma-GTP: tissue Plasma

CC(=O)[C@@]1(O)CC[C@H]2[C@@H]3C=C(Cl)C4=CC(=O)CC[C@]4(C)[C@H]3CC[C@@]21C [CHLORMADINONE]
TERMINAL_BW (72 h, time 3 day): 229.4 g | APTT (72 h, time 3 day): 26.3 s | Bas (72 h, time 3 day): 0% | Eos (72 h, time 3 day): 1% | Fbg (72 h, time 3 day): 311.6 mg/dL | Hb (72 h, time 3 day): 14.1 g/dL | Ht (72 h, time 3 day): 42.6% | Lym (72 h, time 3 day): 80.4% | MCH (72 h, time 3 day): 20.1 pg | MCHC (72 h, time 3 day): 33.1% | MCV (72 h, time 3 day): 60.6 fL | Mono (72 h, time 3 day): 2.4% | Neu (72 h, time 3 day): 15.6% | PT (72 h, time 3 day): 15.3 s | Plat (72 h, time 3 day): 122.1 x10_4/uL | RBC (72 h, time 3 day): 702.6 x10_4/ul | Ret (72 h, time 3 day): 5.8% | WBC (72 h, time 3 day): 113 x10_2/uL | KIDNEY_L (72 h, time 3 day): 1 g | KIDNEY_R (72 h, time 3 day): 1 g | KIDNEY_TOTAL (72 h, time 3 day): 2 g | LIVER (72 h, time 3 day): 10.5 g | A/G (72 h, time 3 day): 1.3 | ALP (72 h, time 3 day): 1589 IU/L | ALT (72 h, time 3 day): 54 IU/L | AST (72 h, time 3 day): 72.8 IU/L | BUN (72 h, time 3 day): 15.8 mg/dL | CRE (72 h, time 3 day): 0.2 mg/dL | Ca (72 h, time 3 day): 10.7 mg/dL | Cl (72 h, time 3 day): 106.2 meq/L | DBIL (72 h, time 3 day): 0 mg/dL | GLC (72 h, time 3 day): 192.4 mg/dL | IP (72 h, time 3 day): 7.4 mg/dL | K (72 h, time 3 day): 4.5 meq/L | LDH (72 h, time 3 day): 171.4 IU/L | Na (72 h, time 3 day): 141.6 meq/L | PL (72 h, time 3 day): 160.2 mg/dL | RALB (72 h, time 3 day): 3.1 g/dL | TBIL (72 h, time 3 day): 0.006 mg/dL | TC (72 h, time 3 day): 74 mg/dL | TG (72 h, time 3 day): 129.4 mg/dL | TP (72 h, time 3 day): 5.5 g/dL | gamma-GTP (72 h, time 3 day): 1.6 IU/L | TERMINAL_BW ([…], time 7 day): 252.1 g | TERMINAL_BW ([…], time 14 day): 293.5 g | TERMINAL_BW ([…], time 28 day): 362.8 g | APTT ([…], time 7 day): 27.7 s | Bas ([…], time 7 day): 0% | Eos ([…], time 7 day): 1% | Fbg ([…], time 7 day): 343.2 mg/dL | Hb ([…], time 7 day): 14.5 g/dL | Ht ([…], time 7 day): 43.2% | Lym ([…], time 7 day): 84% | MCH ([…], time 7 day): 20.2 pg | MCHC ([…], time 7 day): 33.6% | MCV ([…], time 7 day): 60.1 fL | Mono ([…], time 7 day): 2.2% | Neu ([…], time 7 day): 12% | PT ([…], time 7 day): 15.2 s | Plat ([…], time 7 day): 133.1 x10_4/uL | RBC ([…], time 7 day): 720.2 x10_4/ul | Ret ([…], time 7 day): 4.2% | WBC ([…], time 7 day): 118.1 x10_2/uL | APTT ([…], time 14 day): 27.9 s | Bas ([…], time 14 day): 0% | Eos ([…], time 14 day): 0.8% | Fbg ([…], time 14 day): 327.6 mg/dL | Hb ([…], time 14 day): 14.8 g/dL | Ht ([…], time 14 day): 43.9% | Lym ([…], time 14 day): 82% | MCH ([…], time 14 day): 19.5 pg | MCHC ([…], time 14 day): 33.8% | MCV ([…], time 14 day): 57.6 fL | Mono ([…], time 14 day): 2% | Neu ([…], time 14 day): 14.6% | PT ([…], time 14 day): 15.2 s | Plat ([…], time 14 day): 103.8 x10_4/uL | RBC ([…], time 14 day): 762.8 x10_4/ul | Ret ([…], time 14 day): 3.6% | WBC ([…], time 14 day): 100.2 x10_2/uL | APTT ([…], time 28 day): 27.1 s | Bas ([…], time 28 day): 0% | Eos ([…], time 28 day): 1% | Fbg ([…], time 28 day): 303.4 mg/dL | Hb ([…], time 28 day): 15.5 g/dL | Ht ([…], time 28 day): 45.1% | Lym ([…], time 28 day): 84.8% | MCH ([…], time 28 day): 19.2 pg | MCHC ([…], time 28 day): 34.4% | MCV ([…], time 28 day): 55.7 fL | Mono ([…], time 28 day): 1.6% | Neu ([…], time 28 day): 11.4% | PT ([…], time 28 day): 14.9 s | Plat ([…], time 28 day): 95 x10_4/uL | RBC ([…], time 28 day): 809 x10_4/ul | Ret ([…], time 28 day): 2.2% | WBC ([…], time 28 day): 106.1 x10_2/uL | KIDNEY_L ([…], time 7 day): 1.1 g | KIDNEY_R ([…], time 7 day): 1.1 g | KIDNEY_TOTAL ([…], time 7 day): 2.2 g | KIDNEY_L ([…], time 14 day): 1.1 g | KIDNEY_R ([…], time 14 day): 1.1 g | KIDNEY_TOTAL ([…], time 14 day): 2.3 g | KIDNEY_L ([…], time 28 day): 1.3 g | KIDNEY_R ([…], time 28 day): 1.3 g | KIDNEY_TOTAL ([…], time 28 day): 2.5 g | LIVER ([…], time 7 day): 11.1 g | LIVER ([…], time 14 day): 12 g | LIVER ([…], time 28 day): 14.2 g | A/G ([…], time 7 day): 1.2 | ALP ([…], time 7 day): 1694.8 IU/L | ALT ([…], time 7 day): 46.4 IU/L | AST ([…], time 7 day): 74.6 IU/L | BUN ([…], time 7 day): 16.2 mg/dL | CRE ([…], time 7 day): 0.2 mg/dL | Ca ([…], time 7 day): 10.7 mg/dL | Cl ([…], time 7 day): 106.8 meq/L | DBIL ([…], time 7 day): 0 mg/dL | GLC ([…], time 7 day): 185.4 mg/dL | IP ([…], time 7 day): 7.2 mg/dL | K ([…], time 7 day): 4.2 meq/L | LDH ([…], time 7 day): 148.4 IU/L | Na ([…], time 7 day): 140.6 meq/L | PL ([…], time 7 day): 155.2 mg/dL | RALB ([…], time 7 day): 3.1 g/dL | TBIL ([…], time 7 day): 0.002 mg/dL | TC ([…], time 7 day): 67.4 mg/dL | TG ([…], time 7 day): 200.6 mg/dL | TP ([…], time 7 day): 5.7 g/dL | gamma-GTP ([…], time 7 day): 2 IU/L | A/G ([…], time 14 day): 1.2 | ALP ([…], time 14 day): 1379.4 IU/L | ALT ([…], time 14 day): 44.8 IU/L | AST ([…], time 14 day): 72.8 IU/L | BUN ([…], time 14 day): 17.2 mg/dL | CRE ([…], time 14 day): 0.2 mg/dL | Ca ([…], time 14 day): 10.3 mg/dL | Cl ([…], time 14 day): 107.8 meq/L | DBIL ([…], time 14 day): 0 mg/dL | GLC ([…], time 14 day): 183.8 mg/dL | IP ([…], time 14 day): 6.5 mg/dL | K ([…], time 14 day): 4.2 meq/L | LDH ([…], time 14 day): 144.4 IU/L | Na ([…], time 14 day): 142.2 meq/L | PL ([…], time 14 day): 142.6 mg/dL | RALB ([…], time 14 day): 3.1 g/dL | TBIL ([…], time 14 day): 0.006 mg/dL | TC ([…], time 14 day): 69.2 mg/dL | TG ([…], time 14 day): 142.2 mg/dL | TP ([…], time 14 day): 5.7 g/dL | gamma-GTP ([…], time 14 day): 2 IU/L | A/G ([…], time 28 day): 1.1 | ALP ([…], time 28 day): 1170.6 IU/L | ALT ([…], time 28 day): 46.8 IU/L | AST ([…], time 28 day): 66.6 IU/L | BUN ([…], time 28 day): 18.8 mg/dL | CRE ([…], time 28 day): 0.2 mg/dL | Ca ([…], time 28 day): 10.5 mg/dL | Cl ([…], time 28 day): 105.8 meq/L | DBIL ([…], time 28 day): 0 mg/dL | GLC ([…], time 28 day): 192.8 mg/dL | IP ([…], time 28 day): 6.5 mg/dL | K ([…], time 28 day): 4.2 meq/L | LDH ([…], time 28 day): 142 IU/L | Na ([…], time 28 day): 142 meq/L | PL ([…], time 28 day): 155.4 mg/dL | RALB ([…], time 28 day): 3.1 g/dL | TBIL ([…], time 28 day): 0.006 mg/dL | TC ([…], time 28 day): 73.2 mg/dL | TG ([…], time 28 day): 178 mg/dL | TP ([…], time 28 day): 6 g/dL | gamma-GTP ([…], time 28 day): 2.2 IU/L
